Laboratory results from patent publication US6107333A (priority 1999, dated 2000).
Entries after “also recorded” stand apart in the source; their conditions may differ. Where two headings read alike, the source gives them in different places.

What was measured:
[1] = test system: ovarian and mammary carcinomas; conditions: clinical testing; cited from earlier work
erythrocytes = assay: Hemolysis studies in vitro; type: cell-based; conditions: drug concentrations up to and exceeding 50 μg/ml; 4 hours at 37° C.
Procedure: The procedure of Parthasarathy et al. was used to examine the hemolytic potential of a few selected preparations and the LD50 values of the most optimal formulation was constructed as described (Parthasarathy et al., 1994). Heparinized blood was mixed with an equal volume of Alsever's solution. […] These mixtures were then incubated for 4 hours at 37° C. At the end of the incubation, the cells were pelleted at 10,000×gin an Eppendorf micro-centrifuge and the release of hemoglobin in the supernatant (ie., hemolysis) was determined spectrophotometrically at 550 nm. Maximum lysis was measured against a reference solution of erythrocytes that had been completely lysed by hypotonic shock. The hemolytic potential of the "optimal" complete formulation was evaluated as described (Parthasarathy et al., 1994) and the data were plotted as the fraction of healthy cells versus 1n (total volume percent). Total volume percent was defined as the volume percent of the vehicle in the mixture after dilution with blood. This was done to simulate the dilution of the respective drug formulation in the blood stream after parenteral administration.

[2] = Solubility of paclitaxel in various solvents (HPLC); type: physicochemical
Procedure: A known amount of the drug, as a powder (two different aliquots of purified drug were obtained from Xechem Inc. New Brunswick, N.J.), was equilibrated in the respective solvent at RT (22° C.) over 1 hour. An aliquot was then removed and diluted in MeOH prior to HPLC at predetermined times. […] Different solvent systems were evaluated relative to the above estimates of necessary solubility to arrive at a clinically relevant stable stock formulation. This stock formulation would then be diluted with a "final solvent" to yield a complete stable clinical working formulation of 1-5 mg/ml, that could be infused parenterally. The final solvent was selected from one of the commonly utilized parental infusion fluids, NS, 5% dextrose in water or a parenterally acceptable aqueous lipid emulsion (e.g., Intralipid), all of which are readily available and approved for parenteral administration.
An excess of paclitaxel as a powder was added to DMA, DMSO, PEG, and PG at RT. Each mixture was placed in a dark environment and checked visually for up to 1 hour for evidence of solubilization.

[3] = Paclitaxel plasma concentration after iv injection in rats; type: in vivo, male Sprague-Dawley rats; conditions: 3 mg/kg iv
Procedure: For the in vivo study, male Sprague-Dawley rats with a body weight of 250-300 g were used. They were bought from the Harlan-Sprague-Dawley local breeding facility in Houston, Tex. The animals were allowed a minimum of 3-4 days to accommodate to the change of environment after shipping to the MD Anderson Cancer Center. All animals were allowed free access to commercial feed and tap water prior to and during the pharmacological study. The dose of 3 mg/kg was determined as the highest dose that could be given to the rats as a slow iv injection of the Cremophor® EL based preparation without a lethal anaphylactoid reaction in the absence of pharmacological premedication.
This avoided the possible influence of induction of microsomal liver enzymes which could alter drug metabolism/elimination and influence (the later part of) the plasma concentration curve. For the same reason, all animals were unanesthesized and only physically restrained during the drug injection. The drug concentration of the injected use-formulation was confirmed by HPLC prior to use. […] The blood was centrifuged at 1,000×g for 10 min and the plasma was separated and stored at -80° C. until extracted and assayed by HPLC as described above.

[4] = for Stability (in words) / Degradation over first 60 days (in words): 25 mg/ml; for Stability of use-formulation (in words): aqueous lipid emulsion as terminal solvent
Procedure: To study the physical and chemical stability of the various parenteral formulations, 3 sets of studies were performed: […]
The various formulations were analyzed by HPLC immediately after mixing, then hourly for 8 hours, and then at gradually increasing time intervals for more than 10 days, depending on the initial rate of degradation in the respective solvent system.
Different aliquots were stored at 4° C., 22° C., 40° C., and 60° C. […] Immediately after solubilization and at various intervals up to more than 50 days, aliquots from different samples were analyzed by HPLC.

Q: With `CC(=O)O[C@H]1C(=O)[C@@]2(C)[C@H]([C@H](OC(=O)c3ccccc3)[C@]3(O)C[C@H](OC(=O)[C@H](O)[C@@H](NC(=O)c4ccccc4)c4ccccc4)C(C)=C1C3(C)C)[C@]1(OC(C)=O)CO[C@@H]1C[C@@H]2O` [Paclitaxel] as the molecule, how does the “Antitumor activity (in words)” value [1] read?
A: impressive activity against ovarian and mammary carcinomas

Q: And the “Paclitaxel dependent lysis (in words)” value (erythrocytes)?
A: barely notable above background

Q: What about the solubility ([2]; 5% dextrose, solvent 5% dextrose, 60 min at room temperature, read-out: Solubility) of the same molecule?
A: < 100 µg/mL

Q: And the “Solubility (in words)” value ([2]; PEG-400, PG, NS, Intralipid and 5% dextrose, RT)?
A: did not yield any significant concentrations of solubilized drug

Q: And the solubility ([2]; dma, organic solvent or mixture, solvent DMA, RT, read-out: Solubility)?
A: > 200000 µg/mL

Q: What about the solubility ([2]; dmso, organic solvent or mixture, solvent DMSO, RT, read-out: Solubility) of the same molecule?
A: > 100000 µg/mL

Q: And the solubility ([2]; intralipid, solvent Intralipid, 60 min at room temperature, read-out: Solubility)?
A: < 100 µg/mL

Q: What about the “Solubility (in words)” value ([2]; most of the aqueous solvents) of the same molecule?
A: insoluble in most of the aqueous solvents

Q: What about the solubility ([2]; normal saline, solvent normal saline, 60 min at room temperature, read-out: Solubility) of the same molecule?
A: < 100 µg/mL

Q: What about the solubility ([2]; peg, organic solvent or mixture, solvent PEG, 60 min at room temperature, read-out: Solubility) of the same molecule?
A: < 100 µg/mL

Q: And the solubility ([2]; propylene glycol, organic solvent or mixture, solvent propylene glycol, 60 min at room temperature, read-out: Solubility)?
A: < 100 µg/mL

Q: And the solubility ([2]; solvent DMA, RT)?
A: > 100000 µg/mL

Q: What about the “Paclitaxel plasma concentrations (in words)” value [3] of the same molecule?
A: clearly cytocidal concentrations of paclitaxel are maintained for many hours; also recorded: clearly reach, and for extended time, remain in the antineoplastic range

Q: And the “Time within which significant degradation took place” value [4]?
A: 4 to 6 h

Q: And the “Time without discernible degradation” value [4]?
A: more than 4.5 months

Q: And the “Stability (in words)” value ([4]; room temperature)?
A: stable at 25 mg/ml for several months at room temperature

Q: What about the “Concentration of stable solution” value ([4]; DMA with PEG added (stock solution)) of the same molecule?
A: 25000 µg/mL

Q: What about the “Degradation over first 60 days (in words)” value ([4]; DMA:PEG (1:3, v/v) stock, 4° C.) of the same molecule?
A: did not show any significant degradation

Q: What about the “Stability (in words)” value ([4]; DMA:PEG (1:3, v/v) stock, 4° C., 4.5 months) of the same molecule?
A: overlapping with that recorded for the samples stored at RT

Q: What about the “Degradation over first 60 days (in words)” value ([4]; DMA:PEG (1:3, v/v) stock, 40° C.) of the same molecule?
A: did not show any significant degradation

Q: And the “Degradation over first 60 days (in words)” value ([4]; DMA:PEG (1:3, v/v) stock, RT)?
A: did not show any significant degradation

Q: And the “Stability of use-formulation (in words)” value ([4]; 1 mg/ml, 4° C.)?
A: stable at 1 mg/ml and at 5 mg/ml for over one week

Q: And the “Stability of use-formulation (in words)” value ([4]; 1 mg/ml, RT)?
A: stable at 1 mg/ml and at 5 mg/ml for over one week

Q: What about the “Stability of use-formulation (in words)” value ([4]; 5 mg/ml, 4° C.) of the same molecule?
A: stable at 1 mg/ml and at 5 mg/ml for over one week

Q: What about the “Stability of use-formulation (in words)” value ([4]; 5 mg/ml, RT) of the same molecule?
A: stable at 1 mg/ml and at 5 mg/ml for over one week

Q: What about the “Degradation on storage (in words)” value ([4]; in DMA, >100 mg/ml, RT) of the same molecule?
A: started degrading slowly after storage over night at RT
